Data reported in patent US4604378A, “Basic V1 -vasopressin antagonists” (SmithKline Beckman Corporation, priority 1984, dated 1986).
*1 amine or outer side, *2 acyl side, *3 side chain or, on linkers, in order; H or OH if unused. Where a SMILES comes first, the peptide text is derived from it. Bridges are numbered along the chain shown (N, C = ends). [ ]: non-standard residue; d: D form. The star is where a group is joined. X1 = CC(C)(CC(=O)[*:1])S[*:2]; NH(CH2)4NH2 = NCCCCN*; Mpa = O=C(O)CCS

Experiments:
[1] = biological target: T1, V2 -vasopressin receptors (Sus scrofa, UniProt P32307); test: V2-vasopressin receptor binding, inhibition of 3H-LVP binding, medullary pig kidney tissue
T1 construct: Medullary pig kidney tissue; from tissue; host or cells: medullary pig (hog) kidney tissue
T1 sequence (P32307 whole entry): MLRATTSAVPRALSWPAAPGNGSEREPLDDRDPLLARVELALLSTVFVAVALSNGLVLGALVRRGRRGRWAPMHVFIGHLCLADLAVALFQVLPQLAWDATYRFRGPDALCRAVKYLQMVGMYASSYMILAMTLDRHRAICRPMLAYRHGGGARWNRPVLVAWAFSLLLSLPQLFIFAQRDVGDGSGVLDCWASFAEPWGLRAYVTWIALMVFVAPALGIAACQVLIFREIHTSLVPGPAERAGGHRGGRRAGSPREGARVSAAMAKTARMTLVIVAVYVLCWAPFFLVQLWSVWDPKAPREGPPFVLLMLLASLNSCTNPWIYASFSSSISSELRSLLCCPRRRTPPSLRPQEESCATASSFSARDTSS
Protocol: (§1) Antagonistic activity at the V1 -vasopressin receptors is determined in a protocol which measures the reversal of the vasopressin-induced contraction of rat thoracic aorta tissue. This is expressed as KB (nM) in the table below. Such anti-pressor activity is confirmed in a similar in vitro protocol using binding to the plasma membranes of rat liver. V2 -vasopressin antagonism is determined as receptor binding ability measured by inhibition of 3H-LVP binding (KB as nM), by inhibition of adenylate cyclase activation by vasopressin in the medullary tissue of hog kidneys (Ki as nM) or in vivo in the hydropenic rat protocol (ED300 μg/kg. These procedures are described in the literature: F. Stassen et al., J. Pharmacology and Experimental Therapeutics, 223 50 (1982); F. Stassen et al., lst International Conference on Diuretics, Miami, Fla., Mar. (1984). Antagonistic activity at oxytocin receptors is determined in the isolated rat uterus protocol: W. Sawyer, et al., Endocrinology 106 81 (1979); P. Melin, et al., J. of Endocrinology 88 173 (1981).
^a Medullary pig kidney tissue, […]

[2] = biological target: T2, V1 -vasopressin receptors (Rattus norvegicus, UniProt P30560); test: Reversal of vasopressin-induced contraction of rat thoracic aorta tissue; format: cell-based; settings: rat aortic ring tissue
T2 construct: Rat liver membrane; from tissue; host or cells: rat liver plasma membranes
T2 sequence (P30560 whole entry): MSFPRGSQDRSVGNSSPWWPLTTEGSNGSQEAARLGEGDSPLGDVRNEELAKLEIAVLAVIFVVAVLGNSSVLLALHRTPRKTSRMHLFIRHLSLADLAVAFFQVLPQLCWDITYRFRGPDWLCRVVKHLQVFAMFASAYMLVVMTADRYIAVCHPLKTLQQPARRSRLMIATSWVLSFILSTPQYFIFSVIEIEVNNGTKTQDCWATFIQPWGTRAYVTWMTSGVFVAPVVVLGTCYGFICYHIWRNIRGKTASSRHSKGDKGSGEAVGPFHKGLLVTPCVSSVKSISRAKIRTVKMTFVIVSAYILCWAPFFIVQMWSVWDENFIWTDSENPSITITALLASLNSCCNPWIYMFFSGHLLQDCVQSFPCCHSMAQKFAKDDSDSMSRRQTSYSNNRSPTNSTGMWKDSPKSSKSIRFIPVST
Protocol: as §1
^c Rat aortic ring tissue, […]

oxytocin receptors = biological target: T3, oxytocin receptors (Rattus norvegicus, UniProt P70536); test: Isolated rat uterus protocol, oxytocin antagonism; format: cell-based; settings: read-out: Rat OXT KB
T3 construct: Rat uterus; from tissue; host or cells: isolated rat uterus
T3 sequence (P70536 1-388): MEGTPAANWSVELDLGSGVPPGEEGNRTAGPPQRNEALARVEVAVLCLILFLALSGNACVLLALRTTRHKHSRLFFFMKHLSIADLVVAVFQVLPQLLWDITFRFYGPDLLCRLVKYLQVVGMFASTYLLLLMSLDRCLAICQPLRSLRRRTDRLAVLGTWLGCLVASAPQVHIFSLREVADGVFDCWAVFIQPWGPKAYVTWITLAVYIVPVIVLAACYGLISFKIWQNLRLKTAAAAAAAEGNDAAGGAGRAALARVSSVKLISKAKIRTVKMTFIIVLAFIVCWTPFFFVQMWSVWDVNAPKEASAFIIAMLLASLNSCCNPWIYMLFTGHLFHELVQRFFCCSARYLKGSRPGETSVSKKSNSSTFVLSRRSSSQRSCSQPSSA
Protocol: as §1

Kb [1]	Kb [2]	Kb (oxytocin receptors)	Compound
8600 nM	1.21 nM	5.91 nM	COc1ccc(C[C@@H]2NC(=O)CC(C)(C)SSC[C@@H](C(=O)N3CCC[C@H]3C(=O)NCCCCN)NC(=O)[C@H](CC(N)=O)NC(=O)[C@H](CCC(N)=O)NC(=O)[C@H](Cc3ccccc3)NC2=O)cc1 [A] (Y(Me)FQNCP-{NH(CH2)4NH2}; linker N-5 via X1)
5700 nM	–	1.6 nM	CCOc1ccc(C[C@H]2NC(=O)CCSSC[C@@H](C(=O)N3CCC[C@H]3C(=O)NCCCCN)NC(=O)[C@H](CC(N)=O)NC(=O)[C@H]([C@@H](C)O)NC(=O)[C@H]([C@@H](C)CC)NC2=O)cc1 [C] ([Mpa][dY](Et)ITNCP-{NH(CH2)4NH2}; disulfide 1-6)
4100 nM	–	17.7 nM	CCOc1ccc(C[C@@H]2NC(=O)CCSSC[C@@H](C(=O)N[C@@H](CCCNC(=N)N)C(=O)NCC(N)=O)NC(=O)[C@H](CC(N)=O)NC(=O)[C@H]([C@@H](C)O)NC(=O)[C@H]([C@@H](C)CC)NC2=O)cc1 [D] ([Mpa]Y(Et)ITNCRG-NH2; disulfide 1-6)
1600 nM	–	11.4 nM	CCOc1ccc(C[C@@H]2NC(=O)CCSSC[C@@H](C(=O)N[C@@H](CCCNC(=N)N)C(N)=O)NC(=O)[C@H](CC(N)=O)NC(=O)[C@H]([C@@H](C)O)NC(=O)[C@H]([C@@H](C)CC)NC2=O)cc1 [E] ([Mpa]Y(Et)ITNCR-NH2; disulfide 1-6)
